Test results published in US20240228482A1, “COMPOUNDS, COMPOSITIONS AND METHODS OF TREATING CANCER” (HOTSPOT THERAPEUTICS, INC., priority 2021, published 2024).

Biological target: T1, CBL-B (Homo sapiens, UniProt Q13191)
T1 construct: GST
Assay: CBL-B TR-FRET IC50 screening (E1/E2 ubiquitination, Biotin-Ubiquitin, Anti GST-Tb donor / Streptavidin-d2 acceptor)
Type: biochemical
Settings: CBL-B 10 nM final; 11-point titration from 100 uM; binned A-F; read-out: CBL-B TR-FRET activity IC50

T1 sequence (Q13191 whole entry): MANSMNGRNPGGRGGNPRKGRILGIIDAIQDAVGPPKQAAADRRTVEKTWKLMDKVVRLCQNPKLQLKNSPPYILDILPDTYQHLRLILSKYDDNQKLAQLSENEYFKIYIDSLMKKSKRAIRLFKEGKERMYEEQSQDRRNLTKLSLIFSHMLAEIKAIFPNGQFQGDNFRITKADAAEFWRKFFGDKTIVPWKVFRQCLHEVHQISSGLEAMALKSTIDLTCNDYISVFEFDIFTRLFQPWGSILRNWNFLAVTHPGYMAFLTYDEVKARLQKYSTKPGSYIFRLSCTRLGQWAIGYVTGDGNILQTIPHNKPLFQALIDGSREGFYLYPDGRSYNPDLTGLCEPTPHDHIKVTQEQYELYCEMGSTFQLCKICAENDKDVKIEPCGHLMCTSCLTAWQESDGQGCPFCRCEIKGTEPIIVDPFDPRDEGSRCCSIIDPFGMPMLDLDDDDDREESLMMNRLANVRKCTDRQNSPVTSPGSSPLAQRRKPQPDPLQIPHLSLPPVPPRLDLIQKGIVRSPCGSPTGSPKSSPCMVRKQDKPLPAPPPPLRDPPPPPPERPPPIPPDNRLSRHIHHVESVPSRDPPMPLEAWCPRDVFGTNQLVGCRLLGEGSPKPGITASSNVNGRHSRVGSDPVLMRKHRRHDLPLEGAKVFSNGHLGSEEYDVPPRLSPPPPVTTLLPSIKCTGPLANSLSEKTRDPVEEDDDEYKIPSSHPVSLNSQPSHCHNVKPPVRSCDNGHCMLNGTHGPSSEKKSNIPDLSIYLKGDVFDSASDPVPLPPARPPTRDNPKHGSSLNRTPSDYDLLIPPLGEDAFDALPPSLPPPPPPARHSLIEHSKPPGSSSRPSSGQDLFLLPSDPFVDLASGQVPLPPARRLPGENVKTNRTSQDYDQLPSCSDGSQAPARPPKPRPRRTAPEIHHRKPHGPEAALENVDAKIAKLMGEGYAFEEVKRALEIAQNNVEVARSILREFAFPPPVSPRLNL

SMILES	IC50 [nM]
CC1CN(Cc2cc(C(F)(F)F)c3cn(-c4cccc([C@]5(Cc6nncn6C)C[C@@H](C#N)C5)c4)c(=O)n3c2)CCC1(F)F (single isomer, unassigned) [Compound 100]	< 100
Cn1cnnc1CC1(c2cccc(-n3cc4c(C(F)(F)F)cc(CN5CCCC[C@H](O)C5)cn4c3=O)c2)COC1 [Compound 166]	< 100
C[C@@H](c1cc(C(F)(F)F)c2cn(-c3cccc(C4(Cc5nncn5C)COC4)c3)c(=O)n2c1)N1CCC(C)(F)CC1 [Compound 41]	< 100
COc1cc(-n2cc3c(C(F)(F)F)cc(Br)cn3c2=O)cc(C2(Cc3nncn3C)COC2)c1 [Compound 105]	100 to 300
C[C@H]1CCCN(Cc2cc(C(F)(F)F)c3cn(-c4cccc(C5(Cc6nncn6C(F)F)COC5)c4)c(=O)n3c2)C1 [Compound 48]	< 100
Cn1cnnc1CC1(c2cccc(-n3cc4c(C(F)(F)F)cc(CN5CC6(COC6)C5)cn4c3=O)c2)COC1 [Compound 128]	< 100
Cn1cnnc1C(F)(F)[C@@](C)(F)c1cccc(-n2cc3c(C(F)(F)F)cc(CN4CC[C@H](F)C4)cn3c2=O)c1 [Compound 28]	100 to 300
Cn1cnnc1CC1(c2cccc(-n3cc4c(C(F)(F)F)cc(CN5CC[C@H](F)C5)cn4c3=O)c2)COC1 [Compound 14]	< 100
[2H]C([2H])([2H])n1cnnc1[C@H](c1cccc(-n2cc3c(C(F)(F)F)cc(CN4CCC[C@H](C)C4)cn3c2=O)c1)C1CCC1 (single isomer, unassigned) [Compound 136]	301 to 1000
CN(C)C1CC=C(c2cc(C(F)(F)F)c3cn(-c4cccc(C5(Cc6nncn6C)COC5)c4)c(=O)n3c2)CC1 (stereo not drawn) [Compound 79]	< 100
COc1cc(-n2cc3c(C(F)(F)F)cc(CN4CCC5(CC5)C4)cn3c2=O)cc(C2(Cc3nncn3C)COC2)c1 [Compound 108]	< 100
Cn1cnnc1CC1(c2cccc(-n3cc4c(C(F)(F)F)cc(CN5CC6CC6C5)cn4c3=O)c2)COC1 (stereo not drawn) [Compound 25]	< 100
C=Cc1cc(C(F)(F)F)c2cn(-c3cccc(C4(Cc5nncn5C)COC4)c3)c(=O)n2c1 [Compound 8]	100 to 300
Cn1cnnc1COc1cccc(-n2cc3c(C(F)(F)F)cc(Br)cn3c2=O)c1 [Compound 181]	> 10000
C[C@H]1CCCN(Cc2cc(C(F)(F)F)c3cn(-c4cccc(OCc5nncn5C)c4)c(=O)n3c2)C1 [Compound 200]	> 10000
CN(Cc1nncn1C)c1cccc(-n2cc3c(C(F)(F)F)cc(Br)cn3c2=O)c1 [Compound 132]	> 10000
Cn1cnnc1CC1(c2cccc(-n3cc4c(C(F)(F)F)cc(Br)cn4c3=O)c2)COC1 [Compound 7]	100 to 300
Cn1cnnc1CC1(c2cccc(-n3cc4c(C(F)(F)F)cc(CN5CCNC(=O)C5)cn4c3=O)c2)COC1 [Compound 106]	100 to 300
Cn1cnnc1C1(c2cccc(-n3cc4c(C(F)(F)F)cc(CN5CCC(C)(F)CC5)cn4c3=O)c2)CC2(CC2)C1 [Compound 111]	< 100
CC(C)C[C@H](c1cccc(-n2cc3c(C(F)(F)F)cc(CN4CCC[C@H](C)C4)cn3c2=O)c1)c1nncn1C (single isomer, unassigned) [Compound 151]	301 to 1000

More lines, now with the values ahead:

IC50 [nM]	SMILES
1000 to 3000	COC1(C[C@@H](c2cccc(-n3cc4c(C(F)(F)F)cc(CN5CCC[C@H](C)C5)cn4c3=O)c2)c2nncn2C)CC1 (single isomer, unassigned) [Compound 365]
301 to 1000	COC1CCN(Cc2cc(C(F)(F)F)c3cn(-c4cccc([C@H](c5nncs5)C5CCC5)c4)c(=O)n3c2)CC1 [Compound 330]
< 100	CO[C@H]1C[C@](c2cccc(-n3cc4c(C(F)(F)F)cc(CN5CCC[C@H](C)C5)cn4c3=O)c2)(c2nncn2C)C1 (single isomer, unassigned) [Compound 319]
< 100	CN1CCN(Cc2cc(C(F)(F)F)c3cn(-c4cccc([C@H](c5nncn5C)C5CCC5)c4)c(=O)n3c2)CC1=O [Compound 364_P2]
1000 to 3000	COC[C@@H]1CCCN1Cc1cc(C(F)(F)F)c2cn(-c3cccc([C@H](c4nncn4C)C4CCC4)c3)c(=O)n2c1 [Compound 382_P2]
> 10000	C[C@H]1CCCN([C@H](c2cc(C(F)(F)F)c3cn(-c4cccc([C@@H](c5nncn5C)C5CCC5)c4)c(=O)n3c2)C(F)(F)F)C1 (single isomer, unassigned) [Compound 257]
1000 to 3000	Cn1cnnc1N(c1cccc(-n2cc3c(C(F)(F)F)cccn3c2=O)c1)C1COC1 [Compound 211]
< 100	C[C@H]1CCCN(C(=O)c2cc(C(F)(F)F)c3cn(-c4cccc([C@H](c5nncn5C)C5CCC5)c4)c(=O)n3c2)C1 [Compound 379]
100 to 300	C[C@H]1CCCN(Cc2cc(C(F)(F)F)c3cn(-c4cccc([C@@H](CC5CCC5)c5nncn5C)c4)c(=O)n3c2)C1 [Compound 352_P2]
< 100	CO[C@H]1CCCCN(Cc2cc(C(F)(F)F)c3cn(-c4cccc([C@H](c5nncn5C)C5CCC5)c4)c(=O)n3c2)C1 (single isomer, unassigned) [Compound 261]

Same assay, conditions: Updated Activity, second part of Table 2 (head 'Patent Cmpd No / Updated Activity'); same CBL-B TR-FRET IC50 bins A-F

SMILES	IC50 [nM]
C[C@H]1CCCN(Cc2cc(C(F)(F)F)c3cn(-c4cccc(C5(c6nncn6C)CC(C)(C)C5)c4)c(=O)n3c2)C1 [Compound 433]	< 100

Same assay, conditions: second part of Table 2 (head 'Patent Cmpd No / Updated Activity'); same CBL-B TR-FRET IC50 bins A-F; read-out: Updated Activity

IC50 [nM]	SMILES
< 100	COCC[C@H](c1cccc(-n2cc3c(C(F)(F)F)cc(CN4CCC[C@H](C)C4)cn3c2=O)c1)c1nncn1C (single isomer, unassigned) [Compound 399]
> 10000	C[C@H]1CCCN(Cc2cc(C(F)(F)F)c3cn(-c4cc(C#N)cc([C@H](c5nncn5C)C5COC5)c4)c(=O)n3c2)C1 (single isomer, unassigned) [Compound 555]
> 10000	COCc1csc([C@H](c2cccc(-n3cc4c(C(F)(F)F)cc(CN5CCC[C@H](C)C5)cn4c3=O)c2)C2CCC2)n1 (single isomer, unassigned) [Compound 390]
< 100	CN1CCCN(Cc2cc(C(F)(F)F)c3cn(-c4cccc([C@H](c5nncn5C)C5CCC5)c4)c(=O)n3c2)C1=O [Compound 482]
< 100	C[C@H]1CCCN(Cc2cc(C(F)(F)F)c3cn(-c4cccc(C(=C5CCC5)c5nncn5C)c4)c(=O)n3c2)C1 [Compound 466]
< 100	[2H]C([2H])(c1cc(C(F)(F)F)c2cn(-c3cccc(C4(Cc5nncn5C)COC4)c3)c(=O)n2c1)N1CCC[C@H](C)C1 [Compound 490]
> 10000	C[C@H]1CCCN(Cc2cc(C(F)(F)F)c3cn(-c4cccc([C@@H](c5n[nH]cc5C#N)C5CCC5)c4)c(=O)n3c2)C1 [Compound 566]
> 10000	Cc1cnoc1[C@H](c1cccc(-n2cc3c(C(F)(F)F)cc(CN4CCC[C@H](C)C4)cn3c2=O)c1)C1CCC1 (single isomer, unassigned) [Compound 383]
< 100	C[C@@H]1CN(Cc2cc(C(F)(F)F)c3cn(-c4cc(C#N)cc([C@H](c5nncn5C)C5CCC5)c4)c(=O)n3c2)CCO1 (single isomer, unassigned) [Compound 509]
> 10000	Cc1sc(CO)nc1[C@@H](c1cccc(-n2cc3c(C(F)(F)F)cc(CN4CCC[C@H](C)C4)cn3c2=O)c1)C1CCC1 (single isomer, unassigned) [Compound 391]
< 100	C[C@@H](c1cc(C(F)(F)F)c2cn(-c3cccc([C@H](c4nncn4C)C4CCC4)c3)c(=O)n2c1)N1CCC[C@@H](C(F)(F)F)C1 (single isomer, unassigned) [Compound 614]
